Laboratory results: US6448405B1, “Steroid receptor modulator compounds and methods” (Ligand Pharmaceuticals Incorporated, priority 1994, dated 2002)

What was measured:
[1] = biological target: T1, human progesterone receptor A form (PR-A) (Homo sapiens, UniProt P06401); assay: PR binding assay, baculovirus extract, [3H] progesterone; conditions: read-out: PR Binding Ki
T1 sequence (P06401 1-769 isoform P06401-2): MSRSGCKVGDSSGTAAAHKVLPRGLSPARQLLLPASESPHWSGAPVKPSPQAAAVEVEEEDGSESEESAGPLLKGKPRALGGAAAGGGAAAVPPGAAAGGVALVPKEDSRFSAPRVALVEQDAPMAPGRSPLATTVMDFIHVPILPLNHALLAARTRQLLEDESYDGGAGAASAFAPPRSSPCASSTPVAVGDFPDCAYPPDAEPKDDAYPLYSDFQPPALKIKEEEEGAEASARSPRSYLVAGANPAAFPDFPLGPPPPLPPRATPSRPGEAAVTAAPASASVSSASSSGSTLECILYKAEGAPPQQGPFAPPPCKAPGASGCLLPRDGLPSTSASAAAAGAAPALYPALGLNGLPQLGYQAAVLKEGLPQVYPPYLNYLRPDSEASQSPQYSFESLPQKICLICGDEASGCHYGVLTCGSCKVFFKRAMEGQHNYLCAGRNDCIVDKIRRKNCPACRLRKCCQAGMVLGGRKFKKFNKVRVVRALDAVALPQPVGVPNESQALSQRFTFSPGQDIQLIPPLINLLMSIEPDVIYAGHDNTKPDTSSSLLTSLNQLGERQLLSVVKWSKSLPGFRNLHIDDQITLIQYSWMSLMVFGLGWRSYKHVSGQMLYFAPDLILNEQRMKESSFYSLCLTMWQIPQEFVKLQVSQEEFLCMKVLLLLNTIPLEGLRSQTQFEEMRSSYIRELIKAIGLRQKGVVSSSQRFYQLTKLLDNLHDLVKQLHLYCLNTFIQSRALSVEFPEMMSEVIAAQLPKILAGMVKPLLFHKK

[2] = biological target: T2, human glucocorticoid receptor alpha (GRα) (Homo sapiens, UniProt P04150); assay: GR binding assay, baculovirus extract, [3H] dexamethasone; conditions: competition with [3H] dexamethasone, 4° C., 16 hours; read-out: GR Binding K1
T2 construct: made in house; crude extract used
T2 sequence (P04150 1-777): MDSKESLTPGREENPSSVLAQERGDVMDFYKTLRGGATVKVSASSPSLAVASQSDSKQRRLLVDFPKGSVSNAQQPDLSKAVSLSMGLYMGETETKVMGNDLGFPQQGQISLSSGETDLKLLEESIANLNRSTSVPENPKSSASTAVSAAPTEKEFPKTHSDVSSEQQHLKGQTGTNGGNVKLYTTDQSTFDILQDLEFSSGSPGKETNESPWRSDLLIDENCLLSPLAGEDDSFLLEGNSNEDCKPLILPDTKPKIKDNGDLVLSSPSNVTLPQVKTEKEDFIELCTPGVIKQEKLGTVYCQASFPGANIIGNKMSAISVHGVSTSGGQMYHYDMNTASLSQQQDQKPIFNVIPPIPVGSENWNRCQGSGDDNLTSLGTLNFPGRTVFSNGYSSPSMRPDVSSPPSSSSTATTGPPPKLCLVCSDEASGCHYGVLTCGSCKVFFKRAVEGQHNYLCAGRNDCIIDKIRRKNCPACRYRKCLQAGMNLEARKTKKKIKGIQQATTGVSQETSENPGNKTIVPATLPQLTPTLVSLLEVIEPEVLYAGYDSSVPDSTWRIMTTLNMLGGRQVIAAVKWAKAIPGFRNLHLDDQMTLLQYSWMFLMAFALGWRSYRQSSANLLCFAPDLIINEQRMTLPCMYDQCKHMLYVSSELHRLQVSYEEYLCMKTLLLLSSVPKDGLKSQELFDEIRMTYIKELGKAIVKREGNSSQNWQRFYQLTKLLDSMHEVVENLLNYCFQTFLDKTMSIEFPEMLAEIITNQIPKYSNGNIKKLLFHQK

[3] = biological target: T3, human mineralocorticoid receptor (MR) (Homo sapiens, UniProt P08235); assay: Co-transfection assay, MR antagonist activity, CV-1 cells (pRShMR); type: cell-based; conditions: antagonist mode; for MR Antagonist CV-1 Cells Efficacy (%): Table 4, % maximal inhibition; for IC50: aldosterone at its EC50, read-out: MR Antagonist CV-1 Cells Potency
T3 construct: expressed in transfected cells; host or cells: CV-1 cells, transient transfection
T3 sequence (P08235 1-984): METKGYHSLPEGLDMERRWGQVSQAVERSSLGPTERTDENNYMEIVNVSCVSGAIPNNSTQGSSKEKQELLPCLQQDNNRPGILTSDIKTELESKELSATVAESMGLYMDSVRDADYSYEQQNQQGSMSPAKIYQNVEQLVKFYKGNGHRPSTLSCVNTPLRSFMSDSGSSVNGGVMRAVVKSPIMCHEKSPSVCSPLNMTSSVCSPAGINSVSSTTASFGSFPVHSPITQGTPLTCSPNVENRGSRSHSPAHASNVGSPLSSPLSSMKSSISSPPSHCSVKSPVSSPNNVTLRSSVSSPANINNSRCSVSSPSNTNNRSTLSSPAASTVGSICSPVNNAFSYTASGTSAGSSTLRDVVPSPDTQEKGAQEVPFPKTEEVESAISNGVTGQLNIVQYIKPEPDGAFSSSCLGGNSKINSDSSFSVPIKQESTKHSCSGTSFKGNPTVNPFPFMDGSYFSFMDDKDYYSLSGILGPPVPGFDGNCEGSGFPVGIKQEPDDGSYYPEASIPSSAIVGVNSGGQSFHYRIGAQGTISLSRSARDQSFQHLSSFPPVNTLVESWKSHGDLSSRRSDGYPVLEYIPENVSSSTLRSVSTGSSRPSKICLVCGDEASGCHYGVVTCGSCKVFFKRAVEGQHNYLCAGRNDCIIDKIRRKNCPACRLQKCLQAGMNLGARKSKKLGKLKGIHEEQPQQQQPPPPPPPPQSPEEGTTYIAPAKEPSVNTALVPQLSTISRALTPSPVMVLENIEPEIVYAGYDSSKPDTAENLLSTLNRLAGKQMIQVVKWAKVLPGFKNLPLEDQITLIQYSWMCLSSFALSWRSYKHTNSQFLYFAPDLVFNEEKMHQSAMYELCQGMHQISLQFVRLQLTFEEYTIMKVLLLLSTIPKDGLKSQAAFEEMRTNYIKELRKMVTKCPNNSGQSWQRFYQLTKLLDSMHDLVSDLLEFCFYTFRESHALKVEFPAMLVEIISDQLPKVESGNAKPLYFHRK

[4] = biological target: T4, human glucocorticoid receptor (GR) (Homo sapiens, UniProt P04150); assay: Co-transfection assay, GR antagonist activity, CV-1 cells (pRShGR); type: cell-based; conditions: antagonist mode; for GR Antagonist CV-1 Cells Efficacy (%): Table 4, % maximal inhibition; for IC50: dexamethasone at its EC50, read-out: GR Antagonist CV-1 Cells Potency
T4 construct: expressed in transfected cells; host or cells: CV-1 cells, transient transfection
T4 sequence (P04150 1-777): T2 sequence (P04150 1-777)

Structure (SMILES)	Ki [1]	Ki [2]	MR Antagonist CV-1 Cells Efficacy (%) [3]	IC50 [3]	GR Antagonist CV-1 Cells Efficacy (%) [4]	IC50 [4]
CC1=CC(C)(C)Nc2ccc3c(c21)C(c1cccc(C(F)(F)F)c1)Oc1ccccc1-3 (racemic) [Compound 195, (R/S) 1,2-Dihydro-2,2,4-trimethyl-5-[3-(trifluoromethyl)phenyl]-5H-chromeno[3,4-f]quinoline]	0.003 µM	0.026 µM	47%	1.9 µM	96%	0.59 µM
CC1=CC(C)(C)Nc2ccc3c(c21)C(c1ccccc1)Oc1ccccc1-3 (racemic) [Compound 161, (R/S)-1,2-Dihydro-2,2,4-trimethyl-5-phenyl-5H-chromeno[3,4-f]quinoline]	0.003 µM	0.137 µM	58%	1 µM	97%	0.6 µM
